# Source: ChEMBL document CHEMBL5584238, “Psammaplin A analogues with modified disulfide bond targeting histone deacetylases: Synthesis and biological evaluation” (Eur J Med Chem, 2024)
# Calls of active or inactive are those of the source. The rule behind the calls is not given here.
# Columns and labels:
# [1] = tested on: HCT-116; test: Induction of apoptosis in human HCT-116 cells assessed as late apoptotic cells at 0.4 uM incubated for 24 hrs by Annexin V-FITC/PI staining based flow cytometry analysis ( Rvb = 5.32%); format: functional
# [2] = tested on: HCT-116; test: Induction of apoptosis in human HCT-116 cells assessed as early apoptotic cells at 0.4 uM incubated for 24 hrs by Annexin V-FITC/PI staining based flow cytometry analysis ( Rvb = 2.36%); format: functional
# [3] = tested on: HCT-116; test: Induction of apoptosis in human HCT-116 cells assessed as early apoptotic cells at 0.2 uM incubated for 24 hrs by Annexin V-FITC/PI staining based flow cytometry analysis ( Rvb = 2.36%); format: functional
# [4] = molecular target: T1, Protein deacetylase HDAC6 (Homo sapiens, UniProt Q9UBN7); test: Inhibition of recombinant human HDAC6 using Boc-Lys(Ac)-AMC as substrate preincubated for 1 hr followed by substrate addition and measured after 2 hrs by microplate reader assay
# T1 sequence (Q9UBN7 whole entry): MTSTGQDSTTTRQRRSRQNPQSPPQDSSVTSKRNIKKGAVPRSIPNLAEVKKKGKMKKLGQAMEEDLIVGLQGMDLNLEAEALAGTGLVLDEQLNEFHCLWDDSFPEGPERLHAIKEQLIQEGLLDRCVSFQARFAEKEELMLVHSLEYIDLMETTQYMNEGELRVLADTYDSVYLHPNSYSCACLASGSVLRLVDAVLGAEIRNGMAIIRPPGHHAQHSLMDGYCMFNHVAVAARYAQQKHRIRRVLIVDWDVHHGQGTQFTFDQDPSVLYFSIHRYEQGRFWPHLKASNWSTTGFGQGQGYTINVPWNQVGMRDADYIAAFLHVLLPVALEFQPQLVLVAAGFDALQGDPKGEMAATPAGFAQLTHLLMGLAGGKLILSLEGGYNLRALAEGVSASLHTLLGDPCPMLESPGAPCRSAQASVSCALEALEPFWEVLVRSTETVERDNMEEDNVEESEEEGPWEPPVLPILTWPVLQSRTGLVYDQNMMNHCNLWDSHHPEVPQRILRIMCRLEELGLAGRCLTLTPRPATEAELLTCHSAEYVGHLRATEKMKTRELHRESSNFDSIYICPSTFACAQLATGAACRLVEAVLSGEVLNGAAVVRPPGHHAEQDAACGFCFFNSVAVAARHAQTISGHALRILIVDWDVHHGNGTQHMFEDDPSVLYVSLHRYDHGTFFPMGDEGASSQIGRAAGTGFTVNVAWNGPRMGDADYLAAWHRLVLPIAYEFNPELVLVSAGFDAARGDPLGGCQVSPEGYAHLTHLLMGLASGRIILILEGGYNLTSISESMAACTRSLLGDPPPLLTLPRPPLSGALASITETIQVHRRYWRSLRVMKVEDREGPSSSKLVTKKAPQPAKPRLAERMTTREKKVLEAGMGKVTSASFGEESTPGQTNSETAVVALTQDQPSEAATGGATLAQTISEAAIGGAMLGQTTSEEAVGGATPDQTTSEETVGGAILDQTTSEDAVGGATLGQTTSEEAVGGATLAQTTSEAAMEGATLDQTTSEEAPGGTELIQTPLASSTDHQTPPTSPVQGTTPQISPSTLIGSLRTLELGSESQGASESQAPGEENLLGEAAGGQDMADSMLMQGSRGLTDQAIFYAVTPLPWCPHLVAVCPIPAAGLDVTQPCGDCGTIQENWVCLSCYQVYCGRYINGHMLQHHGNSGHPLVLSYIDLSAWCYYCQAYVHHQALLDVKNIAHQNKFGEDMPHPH
# [5] = tested on: HCT-116; test: Induction of apoptosis in human HCT-116 cells assessed as viable cells at 0.4 uM incubated for 24 hrs by Annexin V-FITC/PI staining based flow cytometry analysis ( Rvb = 92.2%); format: functional; conditions: read-out: Activity
# [6] = molecular target: Class 1 histone deacetylase (Homo sapiens) (UniProt Q13547+O15379+Q92769+Q9BY41); test: Inhibition of class 1 HDACs in human HCT-116 cells assessed as upregulation of acetylated alpha-H3 level incubated for 24 hrs by Western blotting analysis; format: cell-based; conditions: dose 0.5-4 µM
# Chain of Class 1 histone deacetylase (Homo sapiens) (O15379 whole entry, looked up): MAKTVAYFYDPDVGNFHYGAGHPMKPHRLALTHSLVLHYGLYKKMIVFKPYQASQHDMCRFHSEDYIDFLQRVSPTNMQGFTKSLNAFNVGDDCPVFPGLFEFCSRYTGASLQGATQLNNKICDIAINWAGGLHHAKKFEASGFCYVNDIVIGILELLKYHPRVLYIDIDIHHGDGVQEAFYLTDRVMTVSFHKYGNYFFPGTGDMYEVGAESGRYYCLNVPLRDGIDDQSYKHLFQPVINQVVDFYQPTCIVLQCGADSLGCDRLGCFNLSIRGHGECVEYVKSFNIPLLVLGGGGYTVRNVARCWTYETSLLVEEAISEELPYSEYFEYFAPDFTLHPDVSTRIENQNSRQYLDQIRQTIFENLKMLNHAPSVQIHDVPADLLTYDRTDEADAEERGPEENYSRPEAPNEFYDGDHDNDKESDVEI
# Chain of Class 1 histone deacetylase (Homo sapiens) (Q13547 whole entry, looked up): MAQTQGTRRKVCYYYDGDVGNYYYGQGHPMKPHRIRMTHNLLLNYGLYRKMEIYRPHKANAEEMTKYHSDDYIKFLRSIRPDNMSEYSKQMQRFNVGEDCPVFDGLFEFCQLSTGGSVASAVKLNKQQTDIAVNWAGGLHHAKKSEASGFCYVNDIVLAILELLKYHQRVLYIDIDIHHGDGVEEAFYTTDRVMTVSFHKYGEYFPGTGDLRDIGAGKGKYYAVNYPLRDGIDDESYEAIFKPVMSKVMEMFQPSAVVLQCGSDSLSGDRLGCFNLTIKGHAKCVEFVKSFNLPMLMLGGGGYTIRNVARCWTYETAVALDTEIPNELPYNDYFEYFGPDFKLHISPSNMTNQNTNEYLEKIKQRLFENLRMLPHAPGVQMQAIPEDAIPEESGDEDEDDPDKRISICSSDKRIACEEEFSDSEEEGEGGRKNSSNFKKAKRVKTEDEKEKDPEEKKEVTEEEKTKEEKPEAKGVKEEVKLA
# Chain of Class 1 histone deacetylase (Homo sapiens) (Q92769 whole entry, looked up): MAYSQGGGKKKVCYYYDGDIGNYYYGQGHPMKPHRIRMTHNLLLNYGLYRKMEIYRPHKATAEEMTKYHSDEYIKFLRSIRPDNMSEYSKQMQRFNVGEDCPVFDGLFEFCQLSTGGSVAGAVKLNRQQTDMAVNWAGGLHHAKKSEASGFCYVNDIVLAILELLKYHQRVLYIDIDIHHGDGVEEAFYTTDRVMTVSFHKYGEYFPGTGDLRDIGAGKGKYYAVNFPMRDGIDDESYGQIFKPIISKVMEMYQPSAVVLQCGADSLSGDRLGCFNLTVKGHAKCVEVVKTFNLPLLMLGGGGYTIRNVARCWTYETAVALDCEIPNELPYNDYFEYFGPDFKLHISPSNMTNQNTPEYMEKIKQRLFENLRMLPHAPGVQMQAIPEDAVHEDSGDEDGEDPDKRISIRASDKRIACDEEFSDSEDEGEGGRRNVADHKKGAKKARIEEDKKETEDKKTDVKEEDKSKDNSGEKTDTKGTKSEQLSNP
# Chain of Class 1 histone deacetylase (Homo sapiens) (Q9BY41 whole entry, looked up): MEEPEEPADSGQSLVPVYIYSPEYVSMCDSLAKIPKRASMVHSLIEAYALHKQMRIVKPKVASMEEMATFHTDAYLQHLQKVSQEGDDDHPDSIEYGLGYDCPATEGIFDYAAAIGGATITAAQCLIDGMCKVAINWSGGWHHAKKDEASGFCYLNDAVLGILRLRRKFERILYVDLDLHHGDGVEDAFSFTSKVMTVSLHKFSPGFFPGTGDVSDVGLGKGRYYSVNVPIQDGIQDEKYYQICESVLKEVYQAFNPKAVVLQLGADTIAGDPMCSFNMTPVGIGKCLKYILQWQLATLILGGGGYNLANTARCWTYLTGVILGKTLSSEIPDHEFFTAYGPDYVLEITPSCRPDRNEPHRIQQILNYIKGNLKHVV
# [7] = tested on: HCT-116; test: Induction of apoptosis in human HCT-116 cells assessed as necrotic cells at 0.2 uM incubated for 24 hrs by Annexin V-FITC/PI staining based flow cytometry analysis ( Rvb = 0.24%); format: functional
# [8] = tested on: HCT-116; test: Induction of cell cycle arrest in human HCT-116 cells assessed as accumulation of cells at G2/M phase at 0.1 uM after 24 hrs by PI staining based flow cytometry analysis (reference value: 9.3%); format: functional
# [9] = tested on: HCT-116; test: Antitumor activity against human HCT-116 cells xenografted with BALB/c nude mouse assessed as tumor growth inhibition at 5 mg/kg, ip administered every 2 days for 26 days; format: functional; conditions: HCT-116, 624 h, time 26 day, read-out: TGI
# [10] = tested on: HCT-116; test: Induction of cell cycle arrest in human HCT-116 cells assessed as accumulation of cells at G1 phase at 0.2 uM after 24 hrs by PI staining based flow cytometry analysis (reference value: 37.9%); format: functional
# [11] = tested on: Mus musculus; test: In vivo inhibition of class 1 HDACs in BALB/c nude mouse assessed as upregulation of tumor acetylated H3 level at 5 mg/kg, ip administered every 2 days for 26 days by Western blotting analysis; format: functional, organism-based; conditions: time 26.0 day
# [12] = tested on: HCT-116; test: Induction of cell cycle arrest in human HCT-116 cells assessed as accumulation of cells at S phase at 0.1 uM after 24 hrs by PI staining based flow cytometry analysis (reference value: 52.8%); format: functional
SMILES,Activity [1] [%],Activity [2] [%],Activity [3] [%],IC50 [4] [nM],viability at 0.4 µM [5] [%],inhibition [6],Activity [7] [%],Activity [8] [%],inhibition in vivo at 5 mg/kg [9] [%],Activity [10] [%],inhibition [11],Activity [12] [%]
O=C(NCC[Se][Se]CCNC(=O)/C(Cc1ccc(O)c(Br)c1)=N/O)/C(Cc1ccc(O)c(Br)c1)=N/O,4.94,67,46.1,60,28,Dose-Dependent Effect,0.32,47.92,74.6,15,Active,20
O=C(NCC[Se][Se]CCNC(=O)/C(Cc1ccsc1)=N/O)/C(Cc1ccsc1)=N/O,6.97,73.3,47.1,3100,19.7,Dose-Dependent Effect,0.18,31.05,24,11.19,Active,18.84
